The values below come from patent publication US11597708B2, “Inhibitors of heat shock factors and uses thereof” (HSF Pharmaceuticals SA, priority 2016, dated 2023).

For one test, the target named is T1, HSE DNA-binding activity (Homo sapiens, UniProt Q00613).
T1 construct: functionally linked to an hsp70b promoter and therefore controlled by endogenous HSF1; endogenous in cells; host or cells: HeLa cells / HeLa-derived cell line Z74
T1 sequence (Q00613 1-529): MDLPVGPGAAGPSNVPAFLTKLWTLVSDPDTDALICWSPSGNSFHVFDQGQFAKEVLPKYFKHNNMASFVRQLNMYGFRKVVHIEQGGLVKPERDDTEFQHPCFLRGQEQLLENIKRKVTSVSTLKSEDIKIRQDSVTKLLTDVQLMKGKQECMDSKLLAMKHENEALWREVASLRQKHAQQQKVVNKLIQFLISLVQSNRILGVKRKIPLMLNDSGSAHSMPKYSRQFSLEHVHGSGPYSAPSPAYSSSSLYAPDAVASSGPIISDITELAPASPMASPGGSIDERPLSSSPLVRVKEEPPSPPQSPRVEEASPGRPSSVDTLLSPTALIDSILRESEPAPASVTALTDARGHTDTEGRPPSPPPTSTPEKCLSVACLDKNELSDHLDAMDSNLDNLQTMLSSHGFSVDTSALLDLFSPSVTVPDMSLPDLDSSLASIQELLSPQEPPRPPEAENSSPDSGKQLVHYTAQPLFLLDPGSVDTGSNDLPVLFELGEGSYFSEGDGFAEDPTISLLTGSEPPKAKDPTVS
As to the kind of experiment: EMSA using extracts of heat-treated HeLa cells, in the presence of IHSF. The format is biochemical. The conditions noted are these: extracts of HeLa cells heat-treated at 43° C. for 30 min; concentrations as high as about 0.5 mM. Here is the method: Electrophoretic mobility shift assays (EMSA) using a radiolabeled HSE DNA probe were carried out to assess HSF1 DNA-binding activity in extracts of heat-treated (43° C./30 min) HeLa cells that had been exposed to different concentrations of compounds 058 or 115 (FIG. 3A, top panels). […] HSF1 degradation correlated well with the observed decrease in DNA-binding activity. Therefore, HSF1 degradation provides a sufficient explanation for the reduced HSE DNA-binding activity in cells treated with IHSF 058. […] EMSA were also carried out using extracts of HeLa cells that had been heat-treated at 43° C. for 30 min.
For orientation: In EMSA bound probe runs differently from free probe, usually more slowly.

A further test deals with T2, HSF1 (Homo sapiens, UniProt Q00613).
T2 construct: functionally linked to an hsp70b promoter and therefore controlled by endogenous HSF1; endogenous in cells; host or cells: HeLa cells / HeLa-derived cell line Z74
T2 sequence (Q00613 1-529): T1 sequence (Q00613 1-529)
As to the kind of experiment: Z74 cell-based reporter assay: heat-induced RLuc expression controlled by endogenous HSF1. The note with it: Z74 cells; for inhibition at 12.5 µM: 12.5 μM IHSF, negative values marked *: compound enhanced rLuc activity, read-out: Inhibition of HSF1 activity at 12.5 μM IHSF [RLuc] (%); for inhibition at 25 µM: 25 μM IHSF, 2 h exposure, 43° C. 30 min, 6 h at 37° C., read-out: Inhibition of HSF1 activity at 25 μM IHSF [RLuc] (%); for IC50: inhibition of HSF1 activity [RLuc]. The text has this:
For screening this sublibrary, a cell-based assay was developed. We opted for a cell-based assay, because a cell-free assay would have had to be a DNA-binding assay. Such an assay would have limited discovery to molecules capable of interfering with the DNA-binding function of HSF1. This was thought to be too narrow a focus, considering that three of the four cavities identified in the HSF1 DNA-binding domain are not near the DNA interaction region. A straightforward cell-based assay, in which a HSF1-responsive gene would be assayed, was considered likely to be over-inclusive. Compounds would be scored as hits that inhibit any factor that is involved in HSF1 activation or prevents HSF1 deactivation. These factors include protein kinases, activators of protein phosphatases, factors affecting HSF1 mRNA stability, HSP90, HDAC6, etc. For developing a more discriminating cell-based assay, advantage was taken of the modular nature of HSF1. […] The cell-based assay developed (see below for the particular format employed) compared transactivation by wild type HSF1 and chimeric HSF1 in cells exposed to an HSF1-activating heat treatment in the presence of a sublibrary compound. A compound was scored as a hit, if it inhibited the activity of wild type HSF1 but not of chimeric HSF1.
The cell-based assay made use of HeLa-derived cell line Z74 that stably contains a gene for chimeric transcription factor LexA-(human) HSF1 under the control of a CMV early promoter, a firefly luciferase (flue) gene driven by a promoter responsive to the latter chimeric transcription factor and a Renilla luciferase (rluc) gene functionally linked to an hsp70b promoter and therefore controlled by endogenous HSF1 (FIG. 1A). As is shown in FIGS. 1B & C, the reporter genes responded similarly to heat dose, i.e., their activation depended on both duration of heat exposure and temperature of the exposure. […] Depletion of HSF1 (and LexA-HSF1) by siRNA supported the notion that this stress regulation is mediated by HSF1 (and LexA-HSF1). Therefore, the Z74 line was well suited for use in a screening assay aimed at discovering molecules that inhibit heat-induced HSF1 activity through interaction with the transcription factor's DNA-binding domain.
The compounds of the afore-mentioned biased sublibrary were screened in cell line Z74 at 12.5 and 25 μM concentrations. Typically, Z74 cultures in 96-well plates were exposed to compound or vehicle for 2 h, heat-treated at 43.0° C. for 30 min, and incubated further for 6 h at 37° C. to allow for accumulation of the luciferases. RLuc and FLuc activities were determined, typically using the Dual-Glo® Luciferase Assay System (Promega Corp., Madison, Wis.), and reading luciferase light counts in a Wallac Microbeta Trilux-1450 Luminometer (PerkinElmer, Waltham, Mass.). IHSF 001 was one of two library compounds that inhibited RLuc expression but not FLuc expression in heat-treated Z74 cells (Table 1; FIG. 2A). Therefore, IHSF 001 is an inhibitor of HSF1 function that specifically acts through the HSF1 DNA-binding domain. […] A corroborating experiment utilized a cell line containing an hsp70b promoter-driven fluc gene. […] IHSF 001 is (E)-ethyl 4-oxo-4-(thiazol-2-ylamino)but-2-enoate. The compound can be obtained from commercial sources (e.g., AKE-PB-90340538, Akos).
On the technique in general: A reporter such as luciferase makes a cellular process visible.

What is called inhibition is the drop in the measured response relative to a control, in per cent. Take `CCOC(=O)/C=C/C(=O)Nc1ccnc(-c2ccccc2)c1` [IHSF 049, (E)-3-(2-Phenyl-pyridin-4-ylcarbamoyl)-acrylic acid ethyl ester]: the “HSE DNA-binding activity (EMSA) in the presence of IHSF” value (“HSE DNA-binding activity (EMSA)” below) at HSE DNA-binding activity is “no reduction”. At HSF1, the inhibition at 12.5 µM worked out at 53% and the inhibition at 25 µM is 85%.

As to `CCOC(=O)/C=C/C(=O)Nc1ccnc2ccccc12` [IHSF 050, (E)-3-(Quinolin-4-ylcarbamoyl)-acrylic acid ethyl ester], the “HSE DNA-binding activity (EMSA)” value on HSE DNA-binding activity is recorded as “no reduction”. On HSF1, the inhibition at 12.5 µM is 40% and the inhibition at 25 µM stood at 61%.

By IC50 is commonly meant the concentration at which inhibition is half-maximal. With `CCOC(=O)/C=C/C(=O)Nc1nc(C)c(-c2ccccc2)s1` [IHSF 051, (E)-3-(4-Methyl-5-phenyl-thiazol-2-ylcarbamoyl)-acrylic acid ethyl ester], the “HSE DNA-binding activity (EMSA)” value on HSE DNA-binding activity is “no reduction”. In addition, at HSF1, the IC50 was 9.6 µM, the inhibition at 12.5 µM was determined as 72% and the inhibition at 25 µM was 92%.

On to `CCOC(=O)/C=C/C(=O)Nc1nc(C)c(C)s1` [IHSF 052, (E)-3-(4,5-Dimethyl-thiazol-2-ylcarbamoyl)-acrylic acid ethyl ester], for which the “HSE DNA-binding activity (EMSA)” value at HSE DNA-binding activity is given as “no reduction”. Moreover, at HSF1, the 50% inhibitory concentration (IC50) came to 7.4 µM, the inhibition at 12.5 µM was 57% and the inhibition at 25 µM worked out at 71%.

Consider `CCOC(=O)/C=C/C(=O)Nc1ncc(C#N)s1` [IHSF 057, (E)-3-(5-Cyano-thiazol-2-ylcarbamoyl)-acrylic acid ethyl ester], for which the “HSE DNA-binding activity (EMSA)” value on HSE DNA-binding activity is recorded as “no reduction”. Moreover, at HSF1, the inhibition at 12.5 µM was 40% and the inhibition at 25 µM was 65%.

Consider `CCOC(=O)/C=C/C(=O)Nc1ncc(-c2ccccc2C)s1` [IHSF 059, (E)-3-(5-o-Tolyl-thiazol-2-ylcarbamoyl)-acrylic acid ethyl ester], for which the “HSE DNA-binding activity (EMSA)” value on HSE DNA-binding activity is recorded as “no reduction”. Also, on HSF1, the half-maximal inhibitory concentration (IC50) came to 14.7 µM, the inhibition at 12.5 µM came to 45% and the inhibition at 25 µM came to 72%.
